Biological target: T1, β2-adrenoceptor (β2AR) (Rattus norvegicus, UniProt P10608)
T1 construct: gene Adrb2
T1 sequence (P10608 whole entry): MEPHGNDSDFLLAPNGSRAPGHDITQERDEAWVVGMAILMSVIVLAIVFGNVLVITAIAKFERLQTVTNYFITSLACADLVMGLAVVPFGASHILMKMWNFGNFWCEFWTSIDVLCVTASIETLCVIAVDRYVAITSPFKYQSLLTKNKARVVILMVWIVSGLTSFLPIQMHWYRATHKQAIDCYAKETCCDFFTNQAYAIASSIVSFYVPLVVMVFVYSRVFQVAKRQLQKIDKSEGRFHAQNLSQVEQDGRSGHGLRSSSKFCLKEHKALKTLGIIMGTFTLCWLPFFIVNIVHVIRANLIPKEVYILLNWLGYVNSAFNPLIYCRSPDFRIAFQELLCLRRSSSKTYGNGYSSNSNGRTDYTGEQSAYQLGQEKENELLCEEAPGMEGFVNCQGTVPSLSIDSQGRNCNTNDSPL

Row | SMILES | EC50
1 | C[C@@H](Cc1ccc(O)cc1)NC[C@H](O)c1cc(O)cc(O)c1 (racemic) [RS, (R,S)-fenoterol] | 3500 ± 500 nM
2 | C[C@H](Cc1ccc(O)cc1)NC[C@H](O)c1cc(O)cc(O)c1 [RR, (R,R)-fenoterol] | 140 ± 48 nM
